This assay deals with T1, human CCR-3 (Homo sapiens, UniProt P51677).
T1 construct: expressed in transfected cells; host or cells: rat basophil leukaemia (RBL-2H3) cells, membrane preparation
T1 sequence (P51677 1-355): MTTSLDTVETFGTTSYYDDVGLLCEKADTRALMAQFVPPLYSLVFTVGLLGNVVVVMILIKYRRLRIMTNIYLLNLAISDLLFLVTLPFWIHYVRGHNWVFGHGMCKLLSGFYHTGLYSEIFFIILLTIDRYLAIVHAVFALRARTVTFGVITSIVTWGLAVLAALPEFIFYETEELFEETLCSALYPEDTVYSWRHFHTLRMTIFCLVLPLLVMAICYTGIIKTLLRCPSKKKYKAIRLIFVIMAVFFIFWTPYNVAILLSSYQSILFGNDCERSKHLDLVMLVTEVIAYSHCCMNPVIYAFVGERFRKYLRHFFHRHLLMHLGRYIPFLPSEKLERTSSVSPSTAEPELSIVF
The assay is described as follows: binding of [125I]-human eotaxin to human CCR3 (SPA, membranes of RBL-2H3 cells expressing CCR3). The following applies: 4 hours at room temperature, read-out: IC50 value (inhibition of eotaxin binding to CCR3). The procedure:
In this assay the effect of the compounds of the present invention on the binding of human eotaxin to human CCR-3 is determined. Recombinant cells expressing human CCR3 are captured by wheatgerm agglutinin (WGA) polyvinyltoluidene (PVT) SPA beads (available from Amersham), through a specific interaction between the WGA and carbohydrate residues of glycoproteins on the surface of the cells. [^125I]-human eotaxin (available from Amersham) binds specifically to CCR3 receptors bringing the [^125I]-human eotaxin in close proximity to the SPA beads. Emitted […] from the [^125I]-human eotaxin excite, by its proximity, the fluorophore in the beads and produce light.
Preparation of Assay Buffer: 5.96 g HEPES and 7.0 g sodium chloride are dissolved in distilled H2O and 1M aqueous CaCl2 (1 ml) and 1M aqueous MgCl2 (5 ml) are added. The pH is adjusted to 7.6 with NaOH and the solution made to a final volume of 1 L using distilled H2O. 5 g of bovine serum albumin and 0.1 g NaN3 are dissolved in the solution and the resulting buffer stored at 4° C. […]
The assay is performed in a final volume of 250 μl per well of an Optiplate™ microplate (ex Canberra Packard). […] The resulting scintillations are counted using a Canberra Packard TopCount™ scintillation counter, each well being counted for 1 minute. […]

`COc1ccc(OC)c(NC(=O)C[n+]2cc(-c3ccc(Cl)c(Cl)c3)n3c2CCC3)c1` [Example 322]: the IC50 turned out to be 21 nM.
Then `O=C(C[n+]1cc(-c2ccc(Cl)c(Cl)c2)n2c1CCC2)Nc1ccc2c(c1)OCCO2` [Example 341], with 23 nM.

These data come from US20080207718A1, “Use of Fused Imidazole Derivatives to Mediate Ccr3 Related Conditions” (priority 2005, published 2008).
